Source: patent publication US20220017572A1, “GEMINOID LIPOPEPTIDE COMPOUNDS AND THEIR USES” (Erasmus University Medical Center Rotterdam, priority 2016, published 2022)
Residues, ends and D or L forms follow the SMILES beside them.

Columns and labels:
trypsin = biological target: T1, trypsin (Bos taurus, UniProt P00760); assay: Trypsin inhibition, fluorimetric enzyme assay; format: biochemical
T1 construct: gene PRSS1
T1 sequence (P00760 24-246): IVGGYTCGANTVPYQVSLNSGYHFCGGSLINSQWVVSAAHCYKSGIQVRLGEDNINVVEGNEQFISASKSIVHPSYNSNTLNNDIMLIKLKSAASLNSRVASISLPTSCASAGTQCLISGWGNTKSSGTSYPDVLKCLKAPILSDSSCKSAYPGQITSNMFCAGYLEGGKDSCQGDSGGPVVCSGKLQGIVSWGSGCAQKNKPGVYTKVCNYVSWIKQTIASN

dengue 2 protease [1] = biological target: T2, dengue 2 protease (Dengue virus type 2, UniProt P14340); assay: Dengue 2 protease inhibition, hydrolysis of Z-RR-MCA; format: biochemical, dengue 2 virus; parameters: Activity with inhibitors: unit not given here; conditions: for activity at 5 µM: 5 μM inhibitor; for activity at 10 µM: 10 μM inhibitor; for activity at 15 µM: 15 μM inhibitor; for activity at 40 µM: 40 μM inhibitor
T2 construct: The active site of the dengue protease is in the N-terminal part of NS3

human furin = human furin (Homo sapiens, UniProt P09958); assay: Human furin inhibition, hydrolysis of Ac-RVRR-MCA; format: biochemical; conditions: for activity at 5 µM: 5 μM inhibitor; for activity at 10 µM: 10 μM inhibitor; for activity at 15 µM: 15 μM inhibitor; for activity at 40 µM: 40 μM inhibitor
In short: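 Fluorogenic Ac-RVRR-MCA hydrolysis by furin in 10 mM MES, 1 mM CaCl2, pH 7.0, 36.5° C, […]. Residual activity measured by fluorescence at increasing inhibitor levels; Ki from Morrison equation for competitive tight-binding inhibition, with Kiapp correction for [S]˜Km.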

thrombin = thrombin (Homo sapiens, UniProt P00734); assay: Thrombin inhibition, fluorimetric enzyme assay; format: biochemical; conditions: 36.5° C., read-out: Residual Activity (%) Thrombin
plasmin = plasmin (Homo sapiens, UniProt P00747); assay: Plasmin inhibition, fluorimetric enzyme assay; format: biochemical; conditions: 36.5° C., read-out: Residual Activity (%) Plasmin
Protocol: The enzyme was dissolved in 1 mL MES buffer (10 mM), 1 mM CaCl2, pH 7.0 at 36.5° C. Substrate was added in a concentration 10 times the Km, and the inhibitor compounds of type C (C16-KGnK-C16, C16-KAnK-C16, and C16-RAnR-C16) were added in increasing concentrations (1.0, 5.0, 10.0, 20.0, 40.0 μL) from a stock solution of 2 mg in 1 mL DMSO. The residual activity was measured in a Hitachi F2500 spectrofluorimeter, and plots were fitted using the Grafit® software (Erithracus Software, Horley, Surrey, UK). All the assays were calculated by the Morrison equation for competitive inhibition (eq. 1, [Morrison, 1969]). The amount of substrate used for the tight binding titration experiments follow all the requirements, where [S]<<Km for all enzymes, so the Kiapp=Ki.
The first group of gemini-like peptide amphiphiles to be screened was that of C16-K(G or A)nK-C16 (compound type C, with R1=n-C15H31, R2=n-C16H33). […] The results of the Ki determination for trypsin, dengue 2 protease, and human furin are given in Table 1A; some general data for the inhibition by this type of compounds are given in Table 1B. For most compounds in Table 1 the Ki could be derived from competitive inhibition experiments. Judging from the Ki values with the relatively simple substrate Z-RR-MCA, the best inhibitors for dengue 2 protease contain alanine (A) rather than glycine (G).

dengue 2 protease [2] = biological target: T2, dengue 2 protease; assay: Dengue 2 protease inhibition in presence of Triton X-100 (detergent test, Nature Protocol); format: biochemical, dengue 2 virus; conditions: 0.05% Triton X-100; for Activity with 0.05% Triton: initial activity in UAF/min
Source text: A further investigation of the interactions of the geminoid inhibitors with biological membranes and with membrane-bound proteases is needed. […] The preparation and tests of peptides symmetrically, asymmetrically and singly alkylated with saturated, short (C6), and unsaturated (C18:1) alkyl tails are in progress.

DENV2 protease replicon = DENV2 protease replicon assay; format: cell-based; conditions: lowest concentration with observed activity in replicon assay
DENV2 protease = biological target: T3, DENV2 protease (Dengue virus type 2, UniProt P14340); assay: DENV2 protease biochemical assay; conditions: 50 μM inhibitor
T3 construct: The active site of the dengue protease is in the N-terminal part of NS3

dengue 2 protease [3] = biological target: T2, dengue 2 protease; assay: Dengue 2 protease inhibition, hydrolysis of Z-RR-MCA; format: biochemical, dengue 2 virus; parameters: unit not given here; conditions: 30 μM of inhibitor; 10 μM Z-RR-MCA, pH 9.0, 37° C.; initial activity in UAF/min

plasmin, sequence (P00747 581-810 limits assumed, species assumed): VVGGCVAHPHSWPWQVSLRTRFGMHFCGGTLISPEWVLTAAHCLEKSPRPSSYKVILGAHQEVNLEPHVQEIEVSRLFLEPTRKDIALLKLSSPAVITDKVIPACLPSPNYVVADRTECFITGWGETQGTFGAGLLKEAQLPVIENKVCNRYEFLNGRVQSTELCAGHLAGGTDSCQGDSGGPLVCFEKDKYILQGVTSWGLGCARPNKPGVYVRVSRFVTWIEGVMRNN
plasmin, sequence (P00747 97-580 partner limits assumed, species assumed): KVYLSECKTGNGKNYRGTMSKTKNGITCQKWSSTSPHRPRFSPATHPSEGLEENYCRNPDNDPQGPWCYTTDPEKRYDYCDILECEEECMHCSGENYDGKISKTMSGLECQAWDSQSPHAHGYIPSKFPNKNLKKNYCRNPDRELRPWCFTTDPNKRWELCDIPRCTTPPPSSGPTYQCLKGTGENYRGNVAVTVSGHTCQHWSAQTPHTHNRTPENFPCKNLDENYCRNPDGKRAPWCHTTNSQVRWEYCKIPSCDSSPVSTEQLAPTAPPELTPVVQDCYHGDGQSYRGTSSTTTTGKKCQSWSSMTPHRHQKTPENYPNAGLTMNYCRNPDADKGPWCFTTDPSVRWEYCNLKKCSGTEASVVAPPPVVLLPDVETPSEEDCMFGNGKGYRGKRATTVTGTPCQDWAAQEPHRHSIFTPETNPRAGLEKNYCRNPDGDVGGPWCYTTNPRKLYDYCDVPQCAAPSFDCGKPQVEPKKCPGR
human furin, sequence (P09958 108-794): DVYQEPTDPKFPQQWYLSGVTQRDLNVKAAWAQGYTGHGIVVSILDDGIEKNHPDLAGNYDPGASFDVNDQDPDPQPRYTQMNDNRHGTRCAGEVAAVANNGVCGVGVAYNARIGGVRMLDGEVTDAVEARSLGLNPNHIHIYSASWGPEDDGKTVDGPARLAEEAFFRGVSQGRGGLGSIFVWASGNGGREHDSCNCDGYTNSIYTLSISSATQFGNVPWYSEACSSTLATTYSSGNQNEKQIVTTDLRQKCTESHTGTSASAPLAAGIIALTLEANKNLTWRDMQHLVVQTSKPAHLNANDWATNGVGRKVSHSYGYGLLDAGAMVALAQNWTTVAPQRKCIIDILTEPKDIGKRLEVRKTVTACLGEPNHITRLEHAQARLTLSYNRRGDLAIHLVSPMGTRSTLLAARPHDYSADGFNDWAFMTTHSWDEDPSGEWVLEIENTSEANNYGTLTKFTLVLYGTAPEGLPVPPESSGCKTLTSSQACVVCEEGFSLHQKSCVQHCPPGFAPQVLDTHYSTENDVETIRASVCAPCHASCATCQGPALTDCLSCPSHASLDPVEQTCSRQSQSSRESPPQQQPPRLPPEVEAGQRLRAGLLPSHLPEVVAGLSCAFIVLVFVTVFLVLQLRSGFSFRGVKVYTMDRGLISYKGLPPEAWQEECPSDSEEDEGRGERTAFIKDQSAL
T2 sequence (P14340 1476-1653): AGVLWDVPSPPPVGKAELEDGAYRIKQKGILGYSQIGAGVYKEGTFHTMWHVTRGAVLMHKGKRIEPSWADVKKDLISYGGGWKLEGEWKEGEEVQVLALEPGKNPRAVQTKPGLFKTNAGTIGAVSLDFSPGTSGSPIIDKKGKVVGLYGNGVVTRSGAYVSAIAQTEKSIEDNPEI
T3 sequence (P14340 1476-1653): as above
T3 sequence (P14340 1398-1437): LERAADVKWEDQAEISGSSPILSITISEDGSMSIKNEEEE

CCCCCCCCCCCCCCCCNC(=O)[C@H](CCCCN)NC(=O)[C@H](C)NC(=O)[C@H](CCCCN)NC(=O)CCCCCCCCCCCCCCC [C16-KAK-C16]
Ki (trypsin): 15.2 µM | remaining activity at 15 µM (trypsin; 15 μM inhibitor, 36.5° C., read-out: Residual Activity (%) Trypsin): 68% | remaining activity at 40 µM (trypsin; 40 μM inhibitor, 36.5° C., read-out: Residual Activity (%) Trypsin): 35% | remaining activity at 80 µM (trypsin; 80 μM inhibitor, 36.5° C., read-out: Residual Activity (%) Trypsin): 21% | Ki (dengue 2 protease [1]): 0.37 µM | activity at 2.5 µM (dengue 2 protease [1]; 2.5 μM inhibitor, 36.5° C.): 87% | activity at 5 µM (dengue 2 protease [1]; 36.5° C.): 66% | activity at 10 µM (dengue 2 protease [1]; 36.5° C.): 26% | activity at 15 µM (dengue 2 protease [1]; 36.5° C.): 15% | activity at 40 µM (dengue 2 protease [1]; 36.5° C.): 6% | activity at 2.5 µM (human furin; 2.5 μM inhibitor, 36.5° C.): 43% | activity at 5 µM (human furin; 36.5° C.): 30% | activity at 10 µM (human furin; 36.5° C.): 10% | activity at 15 µM (human furin; 36.5° C.): 0% | activity at 40 µM (human furin; 36.5° C.): 0% | Ki (human furin; 10 mM Mes.NaOH, pH 7.0, 2.35 μM Ac-RVRR-MCA, 37° C., read-out: Ki hFurin): 0.54 µM | remaining activity at 15 µM (thrombin; 15 μM inhibitor): 80% | remaining activity at 40 µM (thrombin; 40 μM inhibitor): 64% | remaining activity at 80 µM (thrombin; 80 μM inhibitor): 42% | remaining activity at 15 µM (plasmin; 15 μM inhibitor): 62% | remaining activity at 40 µM (plasmin; 40 μM inhibitor): 20% | remaining activity at 80 µM (plasmin; 80 μM inhibitor): 3% | % recovery in presence of Triton (dengue 2 protease [2]; 30 μM of inhibitor): 41% | Activity with 0.05% Triton (dengue 2 protease [2]; 30 μM of inhibitor): 91 | Replicon activity [μM] (1) (DENV2 protease replicon): 0.3 µM | inhibition at 50 µM (DENV2 protease): 106% | Activity with inhibitors (dengue 2 protease [3]): 0

CCCCCCCCCCCCCCCCNC(=O)[C@H](CCCCN)NC(=O)CNC(=O)CNC(=O)[C@H](CCCCN)NC(=O)CCCCCCCCCCCCCCC [C16-KGGK-C16, C15H31CO-KGGK-NH—C16H33] (HELM PEPTIDE1{[CCCCCCCCCCCCCCCC(=O)[*:2]].K.G.G.K.[CCCCCCCCCCCCCCCCN[*:1]]}$$$$V2.0)
remaining activity at 18 µM (trypsin; 18 μM inhibitor, 36.5° C., read-out: Residual Activity (%) Trypsin): 79% | remaining activity at 55 µM (trypsin; 55 μM inhibitor, 36.5° C., read-out: Residual Activity (%) Trypsin): 45% | remaining activity at 85 µM (trypsin; 85 μM inhibitor, 36.5° C., read-out: Residual Activity (%) Trypsin): 24% | Ki (dengue 2 protease [1]): 5.75 µM | activity at 5 µM (dengue 2 protease [1]; 36.5° C.): 88% | activity at 10 µM (dengue 2 protease [1]; 36.5° C.): 84% | Activity with inhibitors (dengue 2 protease [1]; 10 μM of inhibitor, 10 μM Z-RR-MCA, pH 9.0, 37° C., initial activity in UAF/min): 10 | activity at 15 µM (dengue 2 protease [1]; 36.5° C.): 76% | activity at 20 µM (dengue 2 protease [1]; 20 μM inhibitor, 36.5° C.): 70% | activity at 40 µM (dengue 2 protease [1]; 36.5° C.): 64% | activity at 5 µM (human furin; 36.5° C.): 94% | activity at 10 µM (human furin; 36.5° C.): 85% | activity at 15 µM (human furin; 36.5° C.): 76% | activity at 20 µM (human furin; 20 μM inhibitor, 36.5° C.): 67% | activity at 40 µM (human furin; 36.5° C.): 3% | remaining activity at 18 µM (thrombin; 18 μM inhibitor): 78% | remaining activity at 55 µM (thrombin; 55 μM inhibitor): 46% | remaining activity at 85 µM (thrombin; 85 μM inhibitor): 33% | remaining activity at 18 µM (plasmin; 18 μM inhibitor): 30% | remaining activity at 55 µM (plasmin; 55 μM inhibitor): 11% | remaining activity at 85 µM (plasmin; 85 μM inhibitor): 4% | % recovery in presence of Triton (dengue 2 protease [2]; 10 μM of inhibitor): 73% | Activity with 0.05% Triton (dengue 2 protease [2]; 10 μM of inhibitor): 160 | Replicon activity [μM] (1) (DENV2 protease replicon): 0.3 µM | inhibition at 50 µM (DENV2 protease): 104%
